Reference: publication PMC8826081, “Three-Carbon Linked Dihydroartemisinin-Isatin Hybrids: Design, Synthesis and Their Antiproliferative Anticancer Activity” (Frontiers in Pharmacology, 2022)

Columns and labels:
[1] = tested on: A549/DOX (doxorubicin-resistant A549 cells); assay: MTT antiproliferative activity against doxorubicin-resistant A549; format: cell-based; conditions: for IC50: MTT assay, doxorubicin-resistant A549 cells
Text: (§1) 3-(4,5-dimethylthiazol-2-yl)-2,5-diphenyltetrazolium bromide (MTT) assay was used to determined the antiproliferative activity of dihydroartemisinin-isatin hybrids 5a-e and 6a-j with three-carbon linker against A549, multidrug-resistant A549/DOX and A549/DDP lung cancer cell lines as well as cytotoxicity towards normal lung epithelial cell line (BEAS-2B). The inhibitory effects were expressed in terms of half maximal inhibitory concentration (IC50) values.
(§2) A549, A549/DOX, and A549/DDP lung cancer cells (2×10^3) were plated in each well of a 96-well plate and were allowed to adhere and spread for 24 h. The […] were added to a final concentration of 100 µM, and the cells were cultured for 24 h at 37 °C. 3-(4,5-dimethyl-2-thiazolyl)-2,5-diphenyltetrazolium bromide (MTT) solution (10 µL) was added to each well, and the cultures were incubated for an additional 4 h. A further 100 µL of […] was added and incubation continued overnight. The absorbance at 540 nm was determined in each well with a 96-well plate reader. The growth of the treated cells was compared with that of untreated cells.

[2] = tested on: A549 lung cancer cells; assay: MTT antiproliferative activity against A549; format: cell-based; conditions: MTT assay, drug-sensitive A549
Text: as §1, §2

[3] = tested on: A549/DDP (cisplatin-resistant A549 cells); assay: MTT antiproliferative activity against cisplatin-resistant A549; format: cell-based; conditions: for IC50: MTT assay, cisplatin-resistant A549 cells
Text: as §1, §2

[4] = tested on: BEAS-2B normal lung epithelial cell line; assay: MTT cytotoxicity towards normal lung epithelial cells; conditions: IC50(BEAS-2B)/IC50(A549)
Experimental: as §1
(§3) The compounds were dissolved in DMSO with concentrations from 1024 to 1 μg/mL. The NIH/3T3 cells were maintained in culture medium at 37 °C under 5% CO2 atmosphere. Cells were seeded in 96-well plates (1×10^4 cell per well) and allowed to recover for 24 h. After 72 h of exposure, cells were harvested and cell viability was assessed by MTT assay. The CC50 values were calculated by Bliss analysis.

[5] = in vitro; conditions: human
Experimental: as §1, §3

[6] = tested on: A549, A549/DOX and A549/DDP lung cancer cell lines; assay: MTT antiproliferative activity, summarised over the three lung cancer cell lines; format: cell-based; conditions: MTT assay, span of values over the three lung cancer cell lines; read-out: IC50 (range over A549, A549/DOX and A549/DDP)
Text: as §1, §2

| IC50 ([1]; Homo sapiens) | RI1 (Resistance index: IC50(A549/DOX)/IC50(A549)) [1] | IC50 ([2]; Homo sapiens) | IC50 ([3]; Homo sapiens) | RI2 (Resistance index: IC50(A549/DDP)/IC50(A549)) [3] | IC50 [5] | IC50 [6] | SMILES | SI (Selectivity index: IC50(BEAS-2B)/IC50(A549)) [4] | IC50 [1] | IC50 [2] | IC50 [3] | IC50 ([5]; BEAS-2B normal lung epithelial cells) |
| --- | --- | --- | --- | --- | --- | --- | --- | --- | --- | --- | --- | --- |
| 26.9 µM | 1.08 | 24.7 µM | 31.9 µM | 1.29 | > 100 µM | – | C[C@@H]1CC[C@H]2[C@@H](C)C(OCCCN3C(=O)C(=NO)c4cc(Cl)ccc43)O[C@@H]3O[C@@]4(C)CC[C@@H]1[C@]32OO4 (stereo partly drawn) [6f, 5-chloro-3-(hydroxyimino)-1-(3-(((3R,5aS,6R,8aS,9R,12R,12aR)-3,6,9-trimethyldecahydro-12H-3,12-epoxy[1,2]dioxepino[4,3-i]isochromen-10-yl)oxy)propyl)indolin-2-one] | >4.0 | – | – | – | – |
| > 100 µM | – | > 100 µM | > 100 µM | – | > 100 µM | – | Cc1ccc2c(c1)C(=O)C(=O)N2CCCOC1O[C@@H]2O[C@@]3(C)CC[C@H]4[C@H](C)CC[C@@H]([C@H]1C)[C@@]24OO3 (stereo partly drawn) [5d, 5-methyl-1-(3-(((3R,5aS,6R,8aS,9R,12R,12aR)-3,6,9-trimethyldecahydro-12H-3,12-epoxy[1,2]dioxepino[4,3-i]isochromen-10-yl)oxy)propyl)indoline-2,3-dione] | – | – | – | – | – |
| 87.3 µM | 0.88 | 99.6 µM | 94.2 µM | 0.95 | > 100 µM | – | Cc1ccc2c(c1)C(=NNC(N)=S)C(=O)N2CCCOC1O[C@@H]2O[C@@]3(C)CC[C@H]4[C@H](C)CC[C@@H]([C@H]1C)[C@@]24OO3 (stereo partly drawn) [6h, 2-(5-methyl-2-oxo-1-(3-(((3R,5aS,6R,8aS,9R,12R,12aR)-3,6,9-trimethyldecahydro-12H-3,12-epoxy[1,2]dioxepino[4,3-i]isochromen-10-yl)oxy)propyl)indolin-3-ylidene)hydrazine-1-carbothioamide] | >1.0 | – | – | – | – |
| 73.5 µM | – | 51.6 µM | 60.2 µM | 1.17 | > 100 µM | – | COc1ccc2c(c1)C(=NO)C(=O)N2CCCOC1O[C@@H]2O[C@@]3(C)CC[C@H]4[C@H](C)CC[C@@H]([C@H]1C)[C@@]24OO3 (stereo partly drawn) [6i, 3-(hydroxyimino)-5-methoxy-1-(3-(((3R,5aS,6R,8aS,9R,12R,12aR)-3,6,9-trimethyldecahydro-12H-3,12-epoxy[1,2]dioxepino[4,3-i]isochromen-10-yl)oxy)propyl)indolin-2-one] | >1.9 | – | – | – | – |
| > 100 µM | – | > 100 µM | > 100 µM | – | > 100 µM | – | C[C@@H]1CC[C@H]2[C@@H](C)C(OCCCN3C(=O)C(=NNC(N)=O)c4cc(F)ccc43)O[C@@H]3O[C@@]4(C)CC[C@@H]1[C@]32OO4 (stereo partly drawn) [6d, 2-(5-fluoro-2-oxo-1-(3-(((3R,5aS,6R,8aS,9R,12R,12aR)-3,6,9-trimethyldecahydro-12H-3,12-epoxy[1,2]dioxepino[4,3-i]isochromen-10-yl)oxy)propyl)indolin-3-ylidene)hydrazine-1-carboxamide] | – | – | – | – | – |
| 36.6 µM | 1.57 | 23.2 µM | 28.8 µM | 1.24 | > 100 µM | – | C[C@@H]1CC[C@H]2[C@@H](C)C(OCCCN3C(=O)C(=NNC(N)=S)c4ccccc43)O[C@@H]3O[C@@]4(C)CC[C@@H]1[C@]32OO4 (stereo partly drawn) [6c, 2-(2-oxo-1-(3-(((3R,5aS,6R,8aS,9R,12R,12aR)-3,6,9-trimethyldecahydro-12H-3,12-epoxy[1,2]dioxepino[4,3-i]isochromen-10-yl)oxy)propyl)indolin-3-ylidene)hydrazine-1-carbothioamide] | >4.3 | – | – | – | – |
| > 100 µM | – | > 100 µM | > 100 µM | – | > 100 µM | – | COc1ccc2c(c1)C(=O)C(=O)N2CCCOC1O[C@@H]2O[C@@]3(C)CC[C@H]4[C@H](C)CC[C@@H]([C@H]1C)[C@@]24OO3 (stereo partly drawn) [5e, 5-methoxy-1-(3-(((3R,5aS,6R,8aS,9R,12R,12aR)-3,6,9-trimethyldecahydro-12H-3,12-epoxy[1,2]dioxepino[4,3-i]isochromen-10-yl)oxy)propyl)indoline-2,3-dione] | – | – | – | – | – |
| 29.9 µM | 0.54 | 55.5 µM | 49.7 µM | 0.89 | > 100 µM | – | Cc1ccc2c(c1)C(=NO)C(=O)N2CCCOC1O[C@@H]2O[C@@]3(C)CC[C@H]4[C@H](C)CC[C@@H]([C@H]1C)[C@@]24OO3 (stereo partly drawn) [6g, 3-(hydroxyimino)-5-methyl-1-(3-(((3R,5aS,6R,8aS,9R,12R,12aR)-3,6,9-trimethyldecahydro-12H-3,12-epoxy[1,2]dioxepino[4,3-i]isochromen-10-yl)oxy)propyl)indolin-2-one] | >1.8 | – | – | – | – |
| 78.5 µM | – | 52.6 µM | 40.7 µM | 0.77 | > 100 µM | – | COc1ccc2c(c1)C(=NNC(N)=S)C(=O)N2CCCOC1O[C@@H]2O[C@@]3(C)CC[C@H]4[C@H](C)CC[C@@H]([C@H]1C)[C@@]24OO3 (stereo partly drawn) [6j, 2-(5-methoxy-2-oxo-1-(3-(((3R,5aS,6R,8aS,9R,12R,12aR)-3,6,9-trimethyldecahydro-12H-3,12-epoxy[1,2]dioxepino[4,3-i]isochromen-10-yl)oxy)propyl)indolin-3-ylidene)hydrazine-1-carbothioamide] | >1.9 | – | – | – | – |
| > 100 µM | – | > 100 µM | > 100 µM | – | > 100 µM | – | C[C@@H]1CC[C@H]2[C@@H](C)C(OCCCN3C(=O)C(=NNC(N)=O)c4ccccc43)O[C@@H]3O[C@@]4(C)CC[C@@H]1[C@]32OO4 (stereo partly drawn) [6b, 2-(2-oxo-1-(3-(((3R,5aS,6R,8aS,9R,12R,12aR)-3,6,9-trimethyldecahydro-12H-3,12-epoxy[1,2]dioxepino[4,3-i]isochromen-10-yl)oxy)propyl)indolin-3-ylidene)hydrazine-1-carboxamide] | – | – | – | – | – |
| 54.3 µM | – | 4.06 µM | 15.1 µM | – | 93.8 µM | 4.06 to 54.3 µM | COc1cccc2c1C(=O)c1c(O)c3c(c(O)c1C2=O)C[C@@](O)(C(=O)CO)C[C@@H]3O[C@H]1C[C@H](N)[C@H](O)[C@H](C)O1 [doxorubicin, reference compound] | – | – | – | – | – |
| 49.7 µM | 0.93 | 53.6 µM | 79.8 µM | 1.49 | > 100 µM | – | C[C@@H]1CC[C@H]2[C@@H](C)C(OCCCN3C(=O)C(=O)c4cc(Cl)ccc43)O[C@@H]3O[C@@]4(C)CC[C@@H]1[C@]32OO4 (stereo partly drawn) [5c, 5-chloro-1-(3-(((3R,5aS,6R,8aS,9R,12R,12aR)-3,6,9-trimethyldecahydro-12H-3,12-epoxy[1,2]dioxepino[4,3-i]isochromen-10-yl)oxy)propyl)indoline-2,3-dione] | >1.8 | – | – | – | – |
| > 100 µM | – | > 100 µM | > 100 µM | – | > 100 µM | – | C[C@@H]1CC[C@H]2[C@@H](C)C(OCCCN3C(=O)C(=O)c4ccccc43)O[C@@H]3O[C@@]4(C)CC[C@@H]1[C@]32OO4 (stereo partly drawn) [5a, 1-(3-(((3R,5aS,6R,8aS,9R,12R,12aR)-3,6,9-trimethyldecahydro-12H-3,12-epoxy[1,2]dioxepino[4,3-i]isochromen-10-yl)oxy)propyl)indoline-2,3-dione] | – | – | – | – | – |
| > 100 µM | – | > 100 µM | > 100 µM | – | – | > 100 µM | C[C@@H]1CC[C@H]2[C@@H](C)C(=O)O[C@@H]3O[C@@]4(C)CC[C@@H]1[C@]32OO4 [Artemisinin] | – | – | – | – | > 100 µM |
| > 100 µM | – | > 100 µM | > 100 µM | – | > 100 µM | – | C[C@@H]1CC[C@H]2[C@@H](C)C(OCCCN3C(=O)C(=O)c4cc(F)ccc43)O[C@@H]3O[C@@]4(C)CC[C@@H]1[C@]32OO4 (stereo partly drawn) [5b, 5-fluoro-1-(3-(((3R,5aS,6R,8aS,9R,12R,12aR)-3,6,9-trimethyldecahydro-12H-3,12-epoxy[1,2]dioxepino[4,3-i]isochromen-10-yl)oxy)propyl)indoline-2,3-dione] | – | – | – | – | – |
| 88 µM | 1.27 | 69.4 µM | 75.9 µM | 1.09 | > 100 µM | 69.4 to 88 µM | C[C@H]1[C@@H](O)O[C@@H]2O[C@@]3(C)CC[C@H]4[C@H](C)CC[C@@H]1[C@@]24OO3 [DHA, Dihydroartemisinin] | >1.4 | – | – | – | – |

| SMILES | IC50 ([1]; Homo sapiens) | RI1 (Resistance index: IC50(A549/DOX)/IC50(A549)) [1] | IC50 ([2]; Homo sapiens) | IC50 ([3]; Homo sapiens) | RI2 (Resistance index: IC50(A549/DDP)/IC50(A549)) [3] | IC50 [5] | IC50 [6] | SI (Selectivity index: IC50(BEAS-2B)/IC50(A549)) [4] | IC50 [1] | IC50 [2] | IC50 [3] | IC50 ([5]; BEAS-2B normal lung epithelial cells) |
| --- | --- | --- | --- | --- | --- | --- | --- | --- | --- | --- | --- | --- |
| N.N.[Cl][Pt][Cl] [cisplatin, reference compound] | – | – | – | – | – | – | 9.38 to 66.9 µM | – | 19.7 µM | 9.38 µM | 66.9 µM | – |
